We go through 13 compounds from PubChem BioAssay AID196 (DTP/NCI, 2004).

The subject of this experiment is BDF1 mice, intracerebral B16 melanoma, median survival T/C. Briefly: NCI In Vivo Anticancer Drug Screen. Data for tumor model B16 Melanoma (intracerebral) in B6D2F1 (BDF1) mice. Conditions: endpoint: median survival time, higher = longer survival. The protocol:
The antitumor activity of compounds was measured in mice bearing transplantable tumors. Survival or tumor size were measured and the results are expressed as the measurement made in the treated group (T) divided by the measurement made in the vehicle treated control group (C). The tumor model used in this assay is B16 Melanoma (intracerebral) in B6D2F1 (BDF1) mice

The mark [1] stands for this setting: dose: 0.5 mg/kg/injection, schedule: Q01DX009 (ip), vehicle: saline.
[2] abbreviates: dose: 1.0 mg/kg/injection, schedule: Q01DX009 (ip), vehicle: saline.
Setting [3] is: dose: 2.0 mg/kg/injection, schedule: Q01DX009 (ip), vehicle: saline.
[4] abbreviates: dose: 2.0 mg/kg/injection, schedule: Q01DX009 (ip), vehicle: water.
Setting [5] is: dose: 8.0 mg/kg/injection, schedule: Q01DX009 (ip), vehicle: Klucel (hydroxypropylcellulose) (HPC).
[6] abbreviates: dose: 16.0 mg/kg/injection, schedule: Q01DX009 (ip), vehicle: Klucel (hydroxypropylcellulose) (HPC).
Where [7] appears, read: dose: 32.0 mg/kg/injection, schedule: Q01DX009 (ip), vehicle: Klucel (hydroxypropylcellulose) (HPC).
Where [8] appears, read: dose: 64.0 mg/kg/injection, schedule: Q01DX009 (ip), vehicle: Klucel (hydroxypropylcellulose) (HPC).
The mark [9] stands for this setting: dose: 128.0 mg/kg/injection, schedule: Q01DX009 (ip), vehicle: Klucel (hydroxypropylcellulose) (HPC).
The mark [10] stands for this setting: dose: 4.0 mg/kg/injection, schedule: Q01DX009 (ip), vehicle: saline.

Each structure is given as a SMILES string. Where “and” joins values, the source holds several entries; their conditions need not be identical. Equal values may be shown once. Toxic doses and inconclusive results are not listed.

Consider `CNNCc1ccc(C(=O)NC(C)C)cc1`, for which the T/C is, setting by setting: (dose: 25.0 mg/kg/injection, schedule: Q01DX009 (ip), vehicle: saline) 120 % of control; (dose: 75.0 mg/kg/injection, schedule: Q01DX009 (ip), vehicle: water) 154 % of control; (dose: 100.0 mg/kg/injection, schedule: Q01DX009 (ip), vehicle: saline) 163 % of control; (dose: 150.0 mg/kg/injection, schedule: Q01DX009 (ip), vehicle: water) 163 % of control; (dose: 200.0 mg/kg/injection, schedule: Q01DX009 (ip), vehicle: saline) 168 % of control and 170 % of control; (dose: 300.0 mg/kg/injection, schedule: Q01DX009 (ip), vehicle: water) 100 % of control.
`COc1cccc2c1C(=O)c1c(O)c3c(c(O)c1C2=O)C[C@@](O)(C(C)=O)C[C@@H]3OC1CC(N)C(O)C(C)O1` (stereo partly specified): the T/C (dose: 0.13 mg/kg/injection, schedule: Q01DX009 (ip), vehicle: saline) was 104 % of control; the T/C (dose: 0.25 mg/kg/injection, schedule: Q01DX009 (ip), vehicle: saline) is 116 % of control and 87 % of control and 109 % of control; the T/C (dose: 0.25 mg/kg/injection, schedule: Q03HX008 (ip), vehicle: saline) was 92 % of control; the T/C under setting [1] is 91 % of control and 104 % of control and 109 % of control; the T/C (dose: 0.5 mg/kg/injection, schedule: Q01DX009 (ip), vehicle: water) was 90 % of control; the T/C (dose: 0.5 mg/kg/injection, schedule: Q03HX008 (ip), vehicle: saline) is 100 % of control. Further, the T/C under setting [2] is 100 % of control; the T/C (dose: 1.0 mg/kg/injection, schedule: Q01DX009 (ip), vehicle: water) was 109 % of control; the T/C (dose: 1.0 mg/kg/injection, schedule: Q03HX008 (ip), vehicle: saline) was 100 % of control; the T/C under setting [3] was 100 % of control; the T/C under setting [4] was 100 % of control.
As for `CN(C)CC(=O)c1ccc(O)c(O)c1`, the T/C is, setting by setting: (dose: 100.0 mg/kg/injection, schedule: Q01DX005 (ip), vehicle: saline) 96 % of control; (dose: 200.0 mg/kg/injection, schedule: Q01DX005 (ip), vehicle: saline) 124 % of control and 97 % of control; (dose: 400.0 mg/kg/injection, schedule: Q01DX005 (ip), vehicle: saline) 119 % of control; (dose: 800.0 mg/kg/injection, schedule: Q01DX005 (ip), vehicle: saline) 90 % of control and 108 % of control.
On to `COc1ccc2c(c1OC(C)=O)-c1cc(O)cc3c1C(C2)N(C(=O)CN(CCCl)CCCl)CC3` (stereo unspecified), for which the T/C runs as follows: (dose: 3.12 mg/kg/injection, schedule: Q01DX009 (ip), vehicle: saline with Tween-80) 96 % of control; (dose: 6.25 mg/kg/injection, schedule: Q01DX009 (ip), vehicle: saline with Tween-80) 100 % of control; (dose: 8.0 mg/kg/injection, schedule: Q01DX005 (ip), vehicle: DMSO) 104 % of control; (dose: 12.5 mg/kg/injection, schedule: Q01DX009 (ip), vehicle: saline with Tween-80) 93 % of control; (dose: 16.0 mg/kg/injection, schedule: Q01DX005 (ip), vehicle: DMSO) 106 % of control.
As for `CC/C(=C(/CC)c1ccc(O)cc1)c1ccc(O)cc1`, the T/C is 106 % of control under setting [5]; 100 % of control (dose: 16.0 mg/kg/injection, schedule: Q01DX005 (ip), vehicle: saline with Tween-80); 102 % of control under setting [6]; 99 % of control and 111 % of control (dose: 32.0 mg/kg/injection, schedule: Q01DX005 (ip), vehicle: saline with Tween-80); 95 % of control under setting [7]; 96 % of control and 103 % of control (dose: 64.0 mg/kg/injection, schedule: Q01DX005 (ip), vehicle: saline with Tween-80). Besides, the T/C by setting is: under setting [8], 106 % of control; (dose: 128.0 mg/kg/injection, schedule: Q01DX005 (ip), vehicle: saline with Tween-80) 88 % of control and 102 % of control; under setting [9], 104 % of control; (dose: 256.0 mg/kg/injection, schedule: Q01DX009 (ip), vehicle: Klucel (hydroxypropylcellulose) (HPC)) 111 % of control.
As for `O=CC(NC(=O)N(CCCl)N=O)C(O)C(O)C(O)CO` (stereo unspecified), the T/C is 97 % of control under setting [2]; 99 % of control under setting [3]; 111 % of control under setting [10]; 92 % of control (dose: 7.5 mg/kg/injection, schedule: Q01DX001 (ip), vehicle: saline with Tween-80); 117 % of control (dose: 8.0 mg/kg/injection, schedule: Q01DX009 (ip), vehicle: saline); 119 % of control (dose: 15.0 mg/kg/injection, schedule: Q01DX001 (ip), vehicle: saline with Tween-80). In addition, the T/C is, setting by setting: (dose: 17.8 mg/kg/injection, schedule: Q01DX001 (ip), vehicle: Klucel (hydroxypropylcellulose) (HPC)) 120 % of control; (dose: 26.7 mg/kg/injection, schedule: Q01DX001 (ip), vehicle: Klucel (hydroxypropylcellulose) (HPC)) 118 % of control; (dose: 30.0 mg/kg/injection, schedule: Q01DX001 (ip), vehicle: saline with Tween-80) 103 % of control.
As to `Cc1[nH]c(=O)[nH]c(=O)c1N(CCF)CCCl`, the T/C under setting [4] is 107 % of control; the T/C (dose: 4.0 mg/kg/injection, schedule: Q01DX009 (ip), vehicle: water) was 104 % of control; the T/C (dose: 8.0 mg/kg/injection, schedule: Q01DX009 (ip), vehicle: water) was 112 % of control; the T/C (dose: 16.0 mg/kg/injection, schedule: Q01DX009 (ip), vehicle: water) is 104 % of control; the T/C (dose: 32.0 mg/kg/injection, schedule: Q01DX009 (ip), vehicle: water) was 102 % of control.
In the case of `COS(C)(=O)=O`, the T/C is 89 % of control (dose: 16.0 mg/kg/injection, schedule: Q01DX005 (ip), vehicle: saline); 100 % of control (dose: 32.0 mg/kg/injection, schedule: Q01DX005 (ip), vehicle: saline); 95 % of control (dose: 64.0 mg/kg/injection, schedule: Q01DX005 (ip), vehicle: saline); 106 % of control (dose: 128.0 mg/kg/injection, schedule: Q01DX005 (ip), vehicle: saline).
As to `CCCCCCC(=O)O[C@H]1CC[C@H]2[C@@H]3CCC4=CC(=O)CC[C@]4(C)[C@H]3CC[C@]12C`, the T/C is 107 % of control under setting [5]; 98 % of control under setting [6]; 100 % of control under setting [7]; 96 % of control under setting [8]; 103 % of control under setting [9].
For the compound `COC1=C(N2CC2)C(=O)C(OC)=C(N2CC2)C1=O`, the T/C under setting [1] is 115 % of control, the T/C under setting [2] is 107 % of control, the T/C under setting [3] was 117 % of control and the T/C under setting [10] was 86 % of control.
Regarding `N=[N+]=CC(=O)CCC(NC(=O)C(CCC(=O)C=[N+]=N)NC(=O)CCC(N)C(=O)O)C(=O)O` (stereo unspecified), the T/C reads like this: (dose: 0.05 mg/kg/injection, schedule: Q01DX005 (ip), vehicle: Klucel (hydroxypropylcellulose) (HPC)) 124 % of control and 108 % of control; (dose: 0.1 mg/kg/injection, schedule: Q01DX005 (ip), vehicle: Klucel (hydroxypropylcellulose) (HPC)) 97 % of control and 108 % of control; (dose: 0.2 mg/kg/injection, schedule: Q01DX005 (ip), vehicle: Klucel (hydroxypropylcellulose) (HPC)) 120 % of control and 111 % of control; (dose: 0.4 mg/kg/injection, schedule: Q01DX005 (ip), vehicle: Klucel (hydroxypropylcellulose) (HPC)) 112 % of control.
`COc1ccc2cc1Oc1ccc(cc1)C[C@H]1c3cc(c(OC)cc3CCN1C)Oc1c(OC)c(OC)cc3c1[C@H](C2)N(C)CC3`: the T/C is 100 % of control (dose: 50.0 mg/kg/injection, schedule: Q01DX005 (ip), vehicle: Klucel (hydroxypropylcellulose) (HPC)); 98 % of control and 103 % of control (dose: 100.0 mg/kg/injection, schedule: Q01DX005 (ip), vehicle: Klucel (hydroxypropylcellulose) (HPC)); 119 % of control and 101 % of control (dose: 200.0 mg/kg/injection, schedule: Q01DX005 (ip), vehicle: Klucel (hydroxypropylcellulose) (HPC)); 95 % of control and 113 % of control (dose: 400.0 mg/kg/injection, schedule: Q01DX005 (ip), vehicle: Klucel (hydroxypropylcellulose) (HPC)).
With `CN(Cc1cnc2nc(N)nc(N)c2n1)c1c(Cl)cc(C(=O)NC(CCC(=O)O)C(=O)O)cc1Cl` (stereo unspecified), the T/C by setting is: under setting [5], 100 % of control; under setting [6], 110 % of control; under setting [7], 94 % of control; under setting [8], 96 % of control; under setting [9], 100 % of control.
